Assay results from PubChem BioAssay AID1963863 (Molecular Pharmacology Branch, DTP, NCI, 2024).
“And” between values parts separate entries of the source, which are not always exact repeats. Equal values may be shown once.

System: 931267-113-T-J1-PDC KRAS spheroid with HUVEC/MSC, viability
Experiment: Anticancer human tumor 931267-113-T-J1-PDC patient-derived colon adenocarcinoma cell line growth inhibition [KRAS2]
Conditions: for viability, T/C: stronger effect = lower value; active = viability on the fitted dose curve at most 10% of control; inactive = the rest
Method in brief: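 Combination screen of spheroid viability in tumor-cell co-cultures with endothelial (HUVEC) and mesenchymal stem cell stroma. Each agent was tested in half-log dilutions, topping at clinical Cmax or at 10 microM without a known Cmax.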

[1] = curve of first compound, second compound 0.1 µM
[2] = curve of first compound, second compound 0.316 µM
[3] = curve of first compound, second compound 1 µM
[4] = curve of first compound, second compound 3.16 µM
[5] = second compound 0.1 µM, first compound 0.0316 µM
[6] = second compound 0.1 µM, first compound 0.1 µM
[7] = second compound 0.316 µM, first compound 0.0316 µM
[8] = second compound 0.316 µM, first compound 0.1 µM
[9] = second compound 1 µM, first compound 0.0316 µM
[10] = second compound 1 µM, first compound 0.1 µM
[11] = second compound 3.16 µM, first compound 0.0316 µM
[12] = second compound 3.16 µM, first compound 0.1 µM
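Also: compound exposure lasted 7 days before the readout.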
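For viability, T/C in this document: 100% = DMSO vehicle control viability.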

C=CC(=O)N1CCN(c2nc(=O)n(-c3c(C)ccnc3C(C)C)c3nc(-c4c(O)cccc4F)c(F)cc23)C(C)C1 (centres undefined)
inactive: viability, T/C (compound 0.1 µM) 92.7% [middle of 17 runs]
> 10 µM: IC50 (compound alone, run of 08/19/2021) | IC50 (compound alone, run of 08/26/2021) | IC50 (compound alone, run of 09/02/2021)

O=C(c1cc(Cc2n[nH]c(=O)c3ccccc23)ccc1F)N1CCN(C(=O)C2CC2)CC1 + C=CC(=O)N1CCN(c2nc(OCC3CCCN3C)nc3c2CCN(c2cccc4cccc(C)c24)C3)CC1CC#N
< 0.0316 µM: IC50 [4]
> 10 µM: IC50 (curve of first compound, second compound 0.0316 µM) | IC50 [1] | IC50 [2] | IC50 [3]
active: viability, T/C [11] 0.28% | viability, T/C [12] 0.21% | viability, T/C (second compound 3.16 µM, first compound 0.316 µM) 0.3% | viability, T/C (second compound 3.16 µM, first compound 1 µM) 0.29% | viability, T/C (second compound 3.16 µM, first compound 3.16 µM) 0.28% | viability, T/C (second compound 3.16 µM, first compound 10 µM) 0.43%
inactive: viability, T/C (second compound 0.0316 µM, first compound 0.0316 µM) 91% | viability, T/C (second compound 0.0316 µM, first compound 0.1 µM) 91.8% | viability, T/C (second compound 0.0316 µM, first compound 0.316 µM) 90.8% | viability, T/C (second compound 0.0316 µM, first compound 1 µM) 109% | viability, T/C (second compound 0.0316 µM, first compound 3.16 µM) 113% | viability, T/C (second compound 0.0316 µM, first compound 10 µM) 103% | viability, T/C [5] 84.7% | viability, T/C [6] 99.4% | viability, T/C (second compound 0.1 µM, first compound 0.316 µM) 81.3% | viability, T/C (second compound 0.1 µM, first compound 1 µM) 79% | viability, T/C (second compound 0.1 µM, first compound 3.16 µM) 73.9% | viability, T/C (second compound 0.1 µM, first compound 10 µM) 84.7% | viability, T/C [7] 84.6% | viability, T/C [8] 96.5% | viability, T/C (second compound 0.316 µM, first compound 0.316 µM) 87% | viability, T/C (second compound 0.316 µM, first compound 1 µM) 69.3% | viability, T/C (second compound 0.316 µM, first compound 3.16 µM) 76.1% | viability, T/C (second compound 0.316 µM, first compound 10 µM) 72.5% | viability, T/C [9] 72.2% | viability, T/C [10] 79.3% | viability, T/C (second compound 1 µM, first compound 0.316 µM) 87.2% | viability, T/C (second compound 1 µM, first compound 1 µM) 69.4% | viability, T/C (second compound 1 µM, first compound 3.16 µM) 80.2% | viability, T/C (second compound 1 µM, first compound 10 µM) 62.5%

Cn1ncnc1[C@H]1c2n[nH]c(=O)c3cc(F)cc(c23)N[C@@H]1c1ccc(F)cc1 + CNCc1ccccc1-c1csc(C(C)Nc2nc(C)nc3cc(OC)c(OC)cc23)c1
inactive: viability, T/C (second compound 0.1 µM, first compound 0.000316 µM) 95.4% | viability, T/C (second compound 0.1 µM, first compound 0.001 µM) 85.4% | viability, T/C (second compound 0.1 µM, first compound 0.00316 µM) 92.4% | viability, T/C (second compound 0.1 µM, first compound 0.01 µM) 84% | viability, T/C [5] 80.9% | viability, T/C [6] 72.6% | viability, T/C (second compound 0.316 µM, first compound 0.000316 µM) 62.4% | viability, T/C (second compound 0.316 µM, first compound 0.001 µM) 66.7% | viability, T/C (second compound 0.316 µM, first compound 0.00316 µM) 66.5% | viability, T/C (second compound 0.316 µM, first compound 0.01 µM) 59.9% | viability, T/C [7] 52.5% | viability, T/C [8] 56.6% | viability, T/C (second compound 1 µM, first compound 0.000316 µM) 42.1% | viability, T/C (second compound 1 µM, first compound 0.001 µM) 61.8% | viability, T/C (second compound 1 µM, first compound 0.00316 µM) 43.2% | viability, T/C (second compound 1 µM, first compound 0.01 µM) 32.8% | viability, T/C [9] 52.6% | viability, T/C [10] 32.3%
active: viability, T/C (second compound 3.16 µM, first compound 0.000316 µM) 0.09% | viability, T/C (second compound 3.16 µM, first compound 0.001 µM) 0.09% | viability, T/C (second compound 3.16 µM, first compound 0.00316 µM) 0.09% | viability, T/C (second compound 3.16 µM, first compound 0.01 µM) 0.07% | viability, T/C [11] 0.1% | viability, T/C [12] 0.19% | viability, T/C (second compound 10 µM, first compound 0.000316 µM) 0.14% | viability, T/C (second compound 10 µM, first compound 0.001 µM) 0.13% | viability, T/C (second compound 10 µM, first compound 0.00316 µM) 0.13% | viability, T/C (second compound 10 µM, first compound 0.01 µM) 0.14% | viability, T/C (second compound 10 µM, first compound 0.0316 µM) 0.16% | viability, T/C (second compound 10 µM, first compound 0.1 µM) 0.98%
< 0.000316 µM: IC50 [3] | IC50 [4] | IC50 (curve of first compound, second compound 10 µM)
> 0.1 µM: IC50 [1] | IC50 [2]

Cn1nccc1Nc1nccc(-c2cc3c(s2)C(C)(C)N(CCN2CCOCC2)C3=O)n1
active: viability, T/C (compound 10 µM) 4.32% [middle of 5 runs]
inactive: viability, T/C (compound 0.0316 µM) 91% [middle of 5 runs] | viability, T/C (compound 0.316 µM) 68.6% [middle of 5 runs] | viability, T/C (compound 1 µM) 30.6% [middle of 5 runs]
7.98% [middle of 5 runs]: viability, T/C (compound 3.16 µM)
574 nM [middle of 4 runs]: IC50 (curve of compound)

CC(C)NCC(C(=O)N1CCN(c2ncnc3c2C(C)CC3O)CC1)c1ccc(Cl)cc1 (centres undefined)
inactive: viability, T/C (compound 0.0316 µM) 91.2% [middle of 5 runs] | viability, T/C (compound 0.316 µM) 89.6% [middle of 5 runs] | viability, T/C (compound 1 µM) 78.3% [middle of 5 runs] | viability, T/C (compound 3.16 µM) 65.2% [middle of 5 runs] | viability, T/C (compound 10 µM) 42.5% [middle of 5 runs]

COc1cc2nccc(Oc3ccc(NC(=O)C4(C(=O)Nc5ccc(F)cc5)CC4)cc3)c2cc1OC
inactive: viability, T/C (compound 0.316 µM) 96.5% [middle of 5 runs] | viability, T/C (compound 1 µM) 105% [middle of 5 runs] | viability, T/C (compound 3.16 µM) 60.4% [middle of 5 runs]
> 10 µM and 6.16 µM and 10 µM: IC50 (curve of compound)
